The text below walks through data of patent publication US12208228B2, “Microneedle array comprising a heat-producing element” (LTS LOHMANN THERAPIE-SYSTEME AG, priority 2019, dated 2025).

The nature of the data set: In vitro permeation studies in static vertical Franz cells, microneedle systems pressed into dermatomized minipig skin. Format: in vitro ADME, Göttingen Minipigs. From the text: The back part of Gottinger Minipighaut (Ellegaard Göttingen Minipigs Agricultural Service, Dalmose, Denmark) was used as the skin. The skin, which is delivered as a so-called full skin without subcutaneous fatty tissue in a frozen state, must first be thawed at room temperature and carefully shaved with plenty of water without using any shaving foam to remove the bristles. The skin is then dermatomized or cut to a layer thickness of 800 μm with the aid of an Acculan 3TI battery-powered electric dermatome (Aesculap AG, Tuttlingen, Germany). Circular punched pieces having a diameter of 25 mm are then knocked out of the pieces of skin treated in this way with the help of a corresponding punching tool, for example, a handle punch and are stored shrink-wrapped in PE bags until further use at −20 degrees Celsius (maximum storage period under these conditions up to 12 months).
The permeation studies were performed in static and vertical Franz cells (Glastechnik Gräfenroda, Germany) with a diffusion area of 1.595 cm^2 and an acceptor volume of 10 ml. The acceptor medium used was phosphate buffer having a pH value of 7.4 according to DAB 10, tempered to 32° C. during the entire permeation time and constantly stirred for uniform mixing of the permeated active ingredient. The acceptor medium was completely replaced by fresh one at the scheduled sampling times. Before the pre-prepared skin punches are clamped in the Franz cells and filled with acceptor, the microneedle systems must first be pressed into the top layer of skin using a manufactured pressure adapter, in the sense of a nail gun with an impulse strength of 150 N/cm^2.
Before filling with the acceptor and inserting the Franz cells into the water bath controlled to a temperature of 32° C., the temperature-controlled cell heads are put on or they are prepared with an active heat pack mixture, see also the figures including explanations.
The analytical determination was carried out by means of HPLC on a C18-Inertsil separation column (250×4.6 mm, 5 μm particle size; VDS Optilab, Berlin) by means of UV detection at 282 nm and at 30 degrees Celsius. A mixture consisting of acetonitrile, methanol and 0.02167 m sodium dihydrogen phosphate solution 10:20:85 (v %/v %/v %) and a pH of 3.2 was used as the eluent. The flow rate was 1.0 ml/min and 20 μl were injected.
The analytical determination was carried out by means of HPLC on a C12-Synergi-Max-RP separation column (150×4.6 mm, 4 μm particle size; Phenomenex, Aschaffenburg) by means of UV detection at 273 nm and at 25 degrees Celsius. A mixture consisting of methanol and HPLC water 40:60 (v %/v %) was used as an eluent. The flow rate was 1.0 ml/min and 20 μl were injected.

On to `Cn1c(=O)c2c(ncn2C)n(C)c1=O` [caffeine, Caffeine], for which the lag time by setting is: (FIG. 5, inventive example with external heat generation (heatable thermostated-water cell head), period of 8 hours) 40 min; (FIG. 5, reference system without additional heat generation, period of 8 hours) 100 min. Where the note is “FIG. 5, inventive example with heat (heatable cell head) vs reference without heat, 8 hours”, the “amount or rate of release of API, factor greater than that of the reference” value was roughly 2. Moreover, for the setting “FIG. 5, reference without heat vs inventive example with heat”, the “lag time of reference larger than inventive example by a factor” value turned out to be 2.5.
`CNS(=O)(=O)Cc1ccc2[nH]cc(CCN(C)C)c2c1` [sumatriptan succinate, Sumatriptan succinate]: the lag time (FIG. 2, inventive example with external heat generation (heatable thermostated-water cell head), period up to 6 hours) was found to be 20 min; the lag time (FIG. 2, reference system without additional heat generation, period up to 6 hours) came to 40 min; the lag time (FIG. 3, inventive example with external heat generation (heatable thermostated-water cell head), period of 60 minutes) stood at 0.5 min; the lag time (FIG. 3, reference system without additional heat generation, period of 60 minutes) amounted to 1.0 min; the lag time (FIG. 4, inventive example with heat from commercial heat pack (Thermopad; pyrophoric iron, activated carbon, sodium chloride), period up to 6 hours) amounted to 0.1 min; the lag time (FIG. 4, reference system without additional heat generation, period up to 6 hours) came to 0.4 min. Moreover, the “amount or rate of release of API, factor greater than that of the reference” value by setting is: (FIG. 2, inventive example with heat (heatable cell head) vs reference without heat, up to 6 hours) roughly 5; (FIG. 3, inventive example with heat (heatable cell head) vs reference without heat, 60 minutes) roughly 4; (FIG. 4, inventive example with commercial heat pack vs reference without heat, up to 6 hours) roughly 8. For the same compound, the “lag time of reference larger than inventive example by a factor” value by setting is: (FIG. 2, reference without heat vs inventive example with heat) 2; (FIG. 3, reference without heat vs inventive example with heat) 2; (FIG. 4, reference without heat vs inventive example with heat pack) 4.
